MIC and IC50 data for 22 compounds are collected here from patent publication US20210070747A1, “2(1H)-QUINOLINONE DERIVATIVE” (priority 2017, published 2021).

For one assay, the system named is E. Coli ATCC 25922. Briefly: Test for evaluating antibacterial activity (E. coli), broth microdilution MIC. Type of assay: cell-based. As to conditions: Escherichia coli, ATCC25922; 35° C., 18 hours, cation-adjusted Mueller-Hinton medium. As for the experimental part: Minimum inhibitory concentration (MIC) was measured using the broth microdilution method described below in accordance with a modification of the standard method specified by CLSI (Clinical & Laboratory Standards Institute).
Bacterial cells under test were cultured overnight on a heart infusion agar medium, scraped off and suspended at a concentration equivalent to McFarland 0.5 turbidity; the suspension thus obtained was diluted 10 folds to give a liquid inoculum. The inoculum (0.005 mL) was inoculated on a cation-adjusted Mueller-Hinton medium containing the analyte compound and cultured at 35° C. for 18 hours. A minimum drug concentration at which no bacterial growth was macroscopically visible was designated MIC.
(In general: Broth dilution looks for growth in wells or tubes with falling amounts of substance.)

In assay [1] the test system is N. gonorrhoeae ATCC 49226. The assay can be described thus: Test for evaluating antibacterial activity (N. gonorrhoeae), broth microdilution MIC. Type of assay: cell-based. As to conditions: Neisseria gonorrhoeae, ATCC49226; 35° C., 24 hours, gonococcal broth. As for the experimental part:
Minimum inhibitory concentration (MIC) was measured using the broth microdilution method described below in accordance with a modification of the method of Geers et al. (Antimicrob. Agents. Chemother. (1989), 33, 233-234).
After sterilization, BD. Difco supplement C was added to give a final concentration of 1%, whereby a gonococcal broth was prepared.
Bacterial cells under test were cultured overnight on a chocolate II agar medium, scraped off and suspended at a concentration equivalent to McFarland 0.5 turbidity; the suspension thus obtained was diluted 5 folds to give a liquid inoculum. The inoculum (0.005 mL) was inoculated on a gonococcal broth containing the analyte compound and cultured at 35° C. for 24 hours. A minimum drug concentration at which no bacterial growth was macroscopically visible was designated MIC.

In a further assay the target is T1, E. coli DNA gyrase (Escherichia coli, UniProt P0AES6).
T1 construct: made in house; host or cells: E. coli BL21 (DE3)
Briefly: Test for evaluating the activity of inhibiting E. coli DNA gyrase enzyme (Method 2, supercoiling, recombinant gyrA/gyrB complex). Type of assay: biochemical. As for the experimental part:
The enzymatic activity of E. coli DNA gyrase was measured by a method comprising reacting DNA gyrase and its substrate, relaxed pBR322 (Inspiralis), in the presence of ATP and detecting the post-reaction supercoiled pBR322/relaxed pBR322 ratio with H19.
Specifically, to 1 ng/μL of relaxed pBR322, E. coli DNA gyrase enzyme (the gyrA or gyrB gene was incorporated into the pET15b plasmid and after expressing them in E. coli BL21 (DE3), purification was performed using a Ni-NTA column to form a complex at room temperature) was added at a final concentration of 0.135 nmol/mL and the mixture was incubated for 60 minutes at room temperature. This reaction was carried out in 20 mmol/L tris-HCl buffered solution (pH 8.0) comprising 0.5 mmol/L ATP, 0.005% bridge 35, 35 mmol/L ammonium acetate, 8 mmol/L magnesium chloride, 4.6% glycerol, and 1 mmol/L dithiothreitol. To the reaction mixture, H19 was added to bring the reaction to an end; thereafter, the supercoiled pBR322/relaxed pBR322 ratio was detected at excitation wavelength/emission wavelength=485 nm/535 nm. An inhibition curve was obtained by allowing the analyte compound to be present at varying concentrations during the reaction described above.

Where [2] appears, read: Method 2, read-out: E. Coli Gyrase supercoiling IC50.

≈ marks a conversion by molar mass, not a printed value. Read-outs that look alike come from different tables or passages of the source.

As for `CNc1cccc2cc(C(=O)NCc3ccc(C(=O)O)cc3)c(=O)[nH]c12` [Example 6, 4-({[8-(methylamino)-2-oxo-1,2-dihydroquinoline-3-carbonyl]amino}methyl)benzoic acid], the minimum inhibitory concentration (MIC) (commonly the smallest concentration in the dilution series that meets the test's criterion for growth inhibition) with E. Coli ATCC 25922 is more than 64 µg/mL; in assay [1] it was 4 µg/mL (≈ 11.4 µM).

Take `CNc1cc(F)cc2cc(C(=O)Nc3ccc(C(=O)O)cc3N(C)C3CCCCC3)c(=O)[nH]c12` [Example 114, 3-[Cyclohexyl(methyl)amino]-4-[[6-fluoro-8-(methylamino)-2-oxo-1,2-dihydroquinoline-3-carbonyl]amino]benzoic Acid]: the IC50 (in general, the concentration needed to halve the response being measured) on E. coli DNA gyrase (setting [2]) came to 339 nM. In the assay with E. Coli ATCC 25922, this compound yielded an MIC of more than 32 µg/mL.

Turning to `CNc1cc(F)cc2cc(C(=O)Nc3ccc(C(=O)O)cc3CCN(C)C)c(=O)[nH]c12` [Example 115, 3-[2-(dimethylamino)ethyl]-4-{[6-fluoro-8-(methylamino)-2-oxo-1,2-dihydroquinoline-3-carbonyl]amino} benzoic acid], the IC50 on E. coli DNA gyrase (setting [2]) stood at 4.57 nM. Besides, the MIC against E. Coli ATCC 25922 is more than 4 µg/mL.

For `CNc1cc(F)cc2cc(C(=O)Nc3ccc(C(=O)O)cc3/C=C/CCO)c(=O)[nH]c12` [Example 119, 4-[[6-Fluoro-8-(methylamino)-2-oxo-1,2-dihydroquinoline-3-carbonyl]amino]-3-[(1E)-4-hydroxybut-1-en-1-yl]benzoic Acid], the half-inhibitory concentration (IC50) at E. coli DNA gyrase (setting [2]) amounted to 20.6 nM. The MIC against E. Coli ATCC 25922 is more than 64 µg/mL.

`CNc1cc(F)cc2cc(C(=O)Nc3ccc(C(=O)O)cc3CCCCO)c(=O)[nH]c12` [Example 120, 4-[[6-Fluoro-8-(methylamino)-2-oxo-1,2-dihydroquinoline-3-carbonyl]amino]-3-(4-hydroxybutyl)benzoic Acid]: the concentration for half-maximal inhibition (IC50) at E. coli DNA gyrase (setting [2]) was determined as 32.5 nM. Also, the MIC with E. Coli ATCC 25922 is more than 32 µg/mL.

Consider `CNc1cc(F)cc2cc(C(=O)Nc3ccc(C(=O)O)cc3/C=C/CCN(C)C)c(=O)[nH]c12.Cl` [Example 125, 3-[(1E)-4-(dimethylamino)but-1-en-1-yl]-4-{[6-fluoro-8-(methylamino)-2-oxo-1,2-dihydroquinoline-3-carbonyl]amino}benzoic acid-hydrochloride], for which, at E. coli DNA gyrase, the IC50 is 24.6 nM. The same compound showed an MIC in the assay with E. Coli ATCC 25922 of more than 32 µg/mL.

Consider `CNc1cc(F)cc2cc(C(=O)Nc3ccc(C(=O)O)cc3CCCCN(C)C)c(=O)[nH]c12` [Example 126, 3-[4-(dimethylamino)butyl]-4-{[6-fluoro-8-(methylamino)-2-oxo-1,2-dihydroquinoline-3-carbonyl]amino}benzoic acid], for which the IC50 on E. coli DNA gyrase (setting [2]) is 22 nM. This compound also yielded an MIC against E. Coli ATCC 25922 of more than 8 µg/mL.

For the compound `CCOC(=O)c1ccc(NC(=O)c2c(O)c3cc(F)cc(NC)c3[nH]c2=O)cc1` [Example 127, Ethyl 4-[[6-fluoro-4-hydroxy-8-(methylamino)-2-oxo-1,2-dihydroquinoline-3-carbonyl]amino]benzoate], the IC50 on E. coli DNA gyrase (setting [2]) amounted to 214 nM. Further, in the assay with E. Coli ATCC 25922, the minimal inhibitory concentration (MIC) was more than 16 µg/mL.

As to `CNc1cc(F)cc2cc(CNc3ccc(C(=O)O)cc3CN(C)C3CCCCC3)c(=O)[nH]c12` [Example 128, 3-[[Cyclohexyl(methyl)amino]methyl]-4-([[6-fluoro-8-(methylamino)-2-oxo-1,2-dihydroquinolin-3-yl]methyl]amino)benzoic Acid], on E. coli DNA gyrase (setting [2]), the 50% inhibitory concentration (IC50) stood at 340 nM. In addition, in the assay on E. Coli ATCC 25922, the minimum inhibitory concentration (MIC) is more than 16 µg/mL.

`CNCCc1c(C(=O)Nc2ccc(C(=O)O)cc2)c(=O)[nH]c2c(NC)cc(F)cc12.O=C(O)C(F)(F)F` [Example 130, 4-([6-Fluoro-8-(methylamino)-4-[2-(methylamino)ethyl]-2-oxo-1,2-dihydroquinoline-3-carbonyl]amino)benzoic acid-trifluoroacetate]: the IC50 on E. coli DNA gyrase came out at 109 nM. The same compound came in with an MIC against E. Coli ATCC 25922 of more than 8 µg/mL.

`CNc1cc(F)cc2c(NCCN)c(C(=O)Nc3ccc(C(=O)O)cc3)c(=O)[nH]c12.O=CO` [Example 131, 4-([4-[(2-Aminoethyl)amino]-6-fluoro-8-(methylamino)-2-oxo-1,2-dihydroquinoline-3-carbonyl]amino)benzoic Acid-Formate]: the half-maximal inhibitory concentration (IC50) at E. coli DNA gyrase worked out at 0.94 nM. In the assay with E. Coli ATCC 25922, this compound registered an MIC of more than 16 µg/mL.

For the compound `CNCCCc1c(C(=O)Nc2ccc(C(=O)O)cc2)c(=O)[nH]c2c(NC)cc(F)cc12.O=C(O)C(F)(F)F` [Example 134, 4-([6-Fluoro-8-(methylamino)-4-[3-(methylamino)propyl]-2-oxo-1,2-dihydroquinoline-3-carbonyl]amino)benzoic Acid-Trifluoroacetate], the concentration for half-maximal inhibition (IC50) on E. coli DNA gyrase came to 131 nM. The same compound displayed an MIC in the assay with E. Coli ATCC 25922 of more than 32 µg/mL.

On to `CNc1cc(F)cc2c(NC[C@H]3C[C@H](N)C3)c(C(=O)Nc3ccc(C(=O)O)cc3)c(=O)[nH]c12.O=CO` [Example 136, 4-{[4-{[(trans-3-aminocyclobutyl)methyl]amino}-6-fluoro-8-(methylamino)-2-oxo-1,2-dihydroquinoline-3-carbonyl]amino}benzoic acid-formate], for which the IC50 at E. coli DNA gyrase was 1.28 nM. In the assay with E. Coli ATCC 25922, this compound yielded an MIC of more than 32 µg/mL.

Regarding `CNc1cc(F)cc2c(NCC3CCNCC3)c(C(=O)Nc3ccc(C(=O)O)cc3)c(=O)[nH]c12.O=CO` [Example 137, 4-{[6-fluoro-8-(methylamino)-2-oxo-4-{[(piperidine-4-yl)methyl]amino}-1,2-dihydroquinoline-3-carbonyl]amino}benzoic acid-formate], on E. coli DNA gyrase, the 50% inhibitory concentration (IC50) was found to be 1.31 nM. Also, the MIC in the assay with E. Coli ATCC 25922 is more than 32 µg/mL.

Consider `CNc1cc(F)cc2c(NC3CC34CCNCC4)c(C(=O)Nc3ccc(C(=O)O)cc3)c(=O)[nH]c12.O=CO` (centres unmarked) [Example 139, 4-({4-[(6-azaspiro[2.5]octane-1-yl)amino]-6-fluoro-8-(methylamino)-2-oxo-1,2-dihydroquinoline-3-carbonyl}amino)benzoic acid-formate], for which the IC50 on E. coli DNA gyrase stood at 6.94 nM. For the same compound, in the assay on E. Coli ATCC 25922, the minimum inhibitory concentration (MIC) is more than 64 µg/mL.

Consider `CNc1cc(F)cc2c(NCC3(N)CCC3)c(C(=O)Nc3ccc(C(=O)O)cc3)c(=O)[nH]c12.O=CO` [Example 140, 4-{[4-{[(1-aminocyclobutyl)methyl]amino}-6-fluoro-8-(methylamino)-2-oxo-1,2-dihydroquinoline-3-carbonyl]amino}benzoic acid-formate], for which the IC50 at E. coli DNA gyrase turned out to be 2.15 nM. The minimum inhibitory concentration (MIC) in the assay on E. Coli ATCC 25922 was more than 32 µg/mL.

In the case of `CNCCNc1c(C(=O)Nc2ccc(C(=O)O)cc2)c(=O)[nH]c2c(NC)cc(F)cc12.O=CO` [Example 141, 4-{[6-fluoro-8-(methylamino)-4-{[2-(methylamino)ethyl]amino}-2-oxo-1,2-dihydroquinoline-3-carobnyl]amino}benzoic acid-formate], at E. coli DNA gyrase, the half-inhibitory concentration (IC50) was 2.09 nM. Moreover, in the assay on E. Coli ATCC 25922, the minimum inhibitory concentration (MIC) is more than 16 µg/mL.

For `CNc1cc(F)cc2c(N[C@H]3C[C@@H](N)C3)c(C(=O)Nc3ccc(C(=O)O)cc3)c(=O)[nH]c12` [Example 142, 4-({4-[(cis-3-aminocyclobutyl)amino]-6-fluoro-8-(methylamino)-2-oxo-1,2-dihydroquinoline-carbonyl}amino) 3-benzoic acid-formate], the IC50 on E. coli DNA gyrase (setting [2]) is 2.66 nM. Besides, the MIC with E. Coli ATCC 25922 is more than 32 µg/mL.

Consider `CNc1cc(F)cc2c(NCCN3CCOCC3)c(C(=O)Nc3ccc(C(=O)O)cc3)c(=O)[nH]c12.O=CO` [Example 143, 4-{[6-fluoro-8-(methylamino)-4-{[2-(morpholine-4-yl)ethyl]amino}-2-oxo-1,2-dihydroquinoline-3-carbonyl]amino}benzoic acid-formate], for which, on E. coli DNA gyrase, the half-inhibitory concentration (IC50) came out at 14.6 nM. The compound further registered a minimal inhibitory concentration (MIC) in the assay on E. Coli ATCC 25922 of more than 64 µg/mL.

Regarding `CNc1cccc2cc(C(=O)Nc3ccc(CC(=O)O)cc3)c(=O)[nH]c12` [Example 166, (4-{[8-(methylamino)-2-oxo-1,2-dihydroquinoline-3-carbonyl]amino}phenyl)acetic acid], the half-inhibitory concentration (IC50) at E. coli DNA gyrase (setting [2]) was found to be 18.1 nM. In addition, the MIC against E. Coli ATCC 25922 is more than 16 µg/mL.

In the case of `CNc1cccc2cc(C(=O)NCCc3ccc(C(=O)O)cc3)c(=O)[nH]c12` [Example 167, 4-(2-{[8-(methylamino)-2-oxo-1,2-dihydroquinoline-3-carbonyl]amino}ethyl)benzoic acid], at E. coli DNA gyrase (setting [2]), the IC50 turned out to be 134 nM. This compound also showed an MIC in the assay with E. Coli ATCC 25922 of more than 32 µg/mL.

For `CNc1cccc2cc(C(=O)NCc3cccc(C(=O)O)c3)c(=O)[nH]c12` [Example 168, 3-({[8-(methylamino)-2-oxo-1,2-dihydroquinoline-3-carbonyl]amino}methyl)benzoic acid], the IC50 at E. coli DNA gyrase (setting [2]) turned out to be 1670 nM. Also, in the assay with E. Coli ATCC 25922, the minimal inhibitory concentration (MIC) is more than 32 µg/mL.
